According to patent publication US8673578B2, “Methods of identifying antagonists of the hTAS2R46 bitter taste receptor” (Deutsches Institut für Ernahrungsforschung Potsdam-Rehbrücke, priority 2009, dated 2014):

Tests used:
hTAS2R44 = molecular target: T1, hTAS2R44 (Homo sapiens, UniProt P59538, L162M); assay: calcium imaging (FLIPR), effect on agonist-dependent hTAS2R activation; format: cell-based; conditions: 100 μM test substance; agonist aristolochic acids 3 μM (EC90); agonist alone = 100%
T1 construct: expressed in transfected cells; host or cells: HEK293T cells stably expressing chimeric Gα16gust44, transient transfection
T1 sequence (P59538 1-309 L162M): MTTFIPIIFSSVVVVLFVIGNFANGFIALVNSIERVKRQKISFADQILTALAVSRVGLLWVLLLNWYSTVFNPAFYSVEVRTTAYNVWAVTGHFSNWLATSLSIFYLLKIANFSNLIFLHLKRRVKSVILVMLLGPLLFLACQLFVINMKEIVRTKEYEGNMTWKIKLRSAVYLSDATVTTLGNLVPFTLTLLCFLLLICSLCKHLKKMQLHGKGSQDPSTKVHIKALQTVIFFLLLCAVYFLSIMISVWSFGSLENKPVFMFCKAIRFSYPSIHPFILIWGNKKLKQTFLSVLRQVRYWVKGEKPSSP
Source text: (§1) Human TAS2R cDNAs were cloned into pcDNA5/FRT (Invitrogen, San Diego, Calif.). For adequate plasma membrane targeting, receptor cDNA was fused to the aminoterminal sequence of the rat somatostatin type 3 receptor at the aminoterminus of the recombinant protein (Bufe, B., T. Hofmann, et al. (2002) Nat Genet. 32(3): 397-401). For immunological detection, the Herpes simplex Glycoprotein D epitope was supplemented at the carboxyterminus of the recombinant protein (Bufe et al., supra). Receptor constructs were transiently transfected into HEK293T cells stably expressing the chimeric G protein subunit Gα16gust44 (Ueda, T., S. Ugawa, et al. (2003) J Neurosci 23(19): 7376-80) using Lipofectamine 2000 (Invitrogen, San Diego, Calif.) in 96-well plates.
(§2) Calcium Imaging experiments were performed 24 h after transfection using a Fluorometric Imaging Plate Reader (FLIPR, Molecular Devices, Munich, Germany) as previously described (Bufe et al., supra). Taste active compounds were ordered from Sigma (Sigma-Aldrich, Taufkirchen, Germany). Absinthin, 3β hydroxy dihydro costunolide and 3β hydroxy pelenolide were kindly provided by Giovanni Appendino (Novara, Italy). Test substances were directly dissolved in C1 buffer (130 mM NaCl, 10 mM Na-Hepes, 10 mM Glucose, 5 mM KCl, 2 mM CaCl2, pH 7.4) or in DMSO, respectively. DMSO stocks were further diluted in C1 buffer not exceeding a final DMSO concentration of 1% on the cells. For the investigation of antagonistic effects, test substances were premixed. Agonists were applied at concentrations corresponding to EC90, except where indicated otherwise (Table 2). Data were collected from 3 independent experiments performed in quadruplicates and processed with SigmaPlot (SPSS, Chicago, Ill.). Fluorescence signals after application of test substances were corrected for and normalized to background fluorescence (ΔF/F═(F−F0)/F0), and baseline noise was subtracted. Calculation of dose-response curves was done by nonlinear regression using the function f(y)=((a−d)/(1+(x/EC50)^nH)+d).
(§3) To test 3β hydroxy dihydro costunolide and 3β hydroxy pelenolide for antagonistic or enhancing effects on hTAS2R activation, transfected cells were stimulated with cognate agonist bitter substances at EC90 concentrations (Table 2) without 3β hydroxy dihydro costunolide and 3β hydroxy pelenolide. The cellular responses after application of the agonist alone were set to 100%, responses obtained after coapplication of agonists and 100 μM 3β hydroxy dihydro costunolide or 100 μM 3β hydroxy pelenolide are shown relative to this value (FIG. 4).

hTAS2R7 = molecular target: T2, hTAS2R7 (Homo sapiens, UniProt Q9NYW3); assay: as above; format: cell-based; conditions: 100 μM test substance; agonist quinine sulfate 10 μM; agonist alone = 100%
T2 construct: expressed in transfected cells; host or cells: HEK293T cells stably expressing chimeric Gα16gust44, transient transfection
T2 sequence (Q9NYW3 1-318): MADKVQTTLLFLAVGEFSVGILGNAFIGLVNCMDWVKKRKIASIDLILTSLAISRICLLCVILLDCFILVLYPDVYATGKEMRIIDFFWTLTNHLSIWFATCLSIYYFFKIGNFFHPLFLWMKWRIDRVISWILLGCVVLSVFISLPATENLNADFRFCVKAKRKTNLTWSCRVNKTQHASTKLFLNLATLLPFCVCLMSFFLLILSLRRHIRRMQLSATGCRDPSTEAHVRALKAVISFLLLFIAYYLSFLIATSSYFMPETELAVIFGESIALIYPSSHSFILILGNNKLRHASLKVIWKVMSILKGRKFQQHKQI
Source text: as §1, §2, §3

hTAS2R38 = molecular target: T3, hTAS2R38 (Homo sapiens, UniProt P59533); assay: calcium imaging (FLIPR), activation of hTAS2R-transfected HEK293T-Gα16gust44 cells; format: cell-based; conditions: 100 μM test substance, bath application; DMSO control
T3 construct: expressed in transfected cells; host or cells: HEK293T cells stably expressing chimeric Gα16gust44, transient transfection
T3 sequence (P59533 1-333): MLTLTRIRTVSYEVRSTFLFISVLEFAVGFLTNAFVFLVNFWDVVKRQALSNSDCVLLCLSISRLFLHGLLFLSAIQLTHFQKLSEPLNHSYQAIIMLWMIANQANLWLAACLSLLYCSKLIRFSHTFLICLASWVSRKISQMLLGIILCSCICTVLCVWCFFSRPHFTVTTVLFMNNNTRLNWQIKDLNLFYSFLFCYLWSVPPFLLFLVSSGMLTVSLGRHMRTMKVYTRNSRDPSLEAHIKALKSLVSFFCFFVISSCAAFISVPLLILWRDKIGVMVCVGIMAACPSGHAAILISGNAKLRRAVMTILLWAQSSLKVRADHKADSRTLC
Source text: as §1, §2
(§4) In a first series of experiments we tested the two sesquiterpene lactones 3β hydroxy dihydro costunolide (formula (I) in FIG. 1) and 3β hydroxy pelenolide (formula (II) in FIG. 1) for their ability to activate hTAS2 receptor-expressing HEK293T cells.
(§5) Signal amplitudes were comparatively small (FIG. 2C).

hTAS2R4 = molecular target: T4, hTAS2R4 (Homo sapiens, UniProt Q9NYW5); assay: as above; format: cell-based; conditions: 100 μM test substance, bath application
T4 construct: expressed in transfected cells; host or cells: HEK293T cells stably expressing chimeric Gα16gust44, transient transfection
T4 sequence (Q9NYW5 1-299): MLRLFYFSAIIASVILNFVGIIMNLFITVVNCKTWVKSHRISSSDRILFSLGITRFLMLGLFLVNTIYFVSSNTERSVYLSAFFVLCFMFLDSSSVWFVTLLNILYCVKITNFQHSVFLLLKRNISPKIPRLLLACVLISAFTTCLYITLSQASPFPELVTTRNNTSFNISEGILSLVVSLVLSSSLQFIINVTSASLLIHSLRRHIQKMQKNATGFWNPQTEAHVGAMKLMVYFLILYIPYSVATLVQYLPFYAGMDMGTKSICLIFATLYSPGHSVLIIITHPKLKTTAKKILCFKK
Source text: as §1, §2, §4, §5

other hTAS2 receptors = assay: as above; format: cell-based, human; conditions: 100 μM test substance, bath application
Source text: as §1
Calcium Imaging experiments were performed 24 h after transfection using a Fluorometric Imaging Plate Reader (FLIPR, Molecular Devices, Munich, Germany) as previously described (Bufe et al., supra). Taste active compounds were ordered from Sigma (Sigma-Aldrich, Taufkirchen, Germany). Absinthin, 3β hydroxy dihydro costunolide and 3β hydroxy pelenolide were kindly provided by Giovanni Appendino (Novara, Italy). […] Fluorescence signals after application of test substances were corrected for and normalized to background fluorescence (ΔF/F═(F−F0)/F0), and baseline noise was subtracted. […]

## C/C1=C\C[C@H](O)[C@@H](C)C[C@H]2OC(=O)[C@@H](C)[C@@H]2CC1 [3β hydroxy pelenolide]
hTAS2R44
  agonist-dependent response of hTAS2R44-expressing cells on coapplication: moderately attenuating effect

## C/C1=C\C[C@H](O)/C(C)=C/[C@H]2OC(=O)[C@@H](C)C2CC1 (stereo partly drawn) [3β hydroxy dihydro costunolide]
hTAS2R7
  agonist-dependent response of hTAS2R7-expressing cells on coapplication: increased responses
hTAS2R38
  calcium response of hTAS2R38-transfected cells: generated by DMSO used as solvent
hTAS2R4
  calcium response of hTAS2R4-transfected cells: responded
Other hTAS2 receptors
  calcium response of cells expressing any of the other TAS2Rs: did not respond
